Patent US20150065693A1, “COMPOSITION FOR PROPHYLAXIS OR TREATMENT OF VASCULAR OR CARDIAC VALVULAR CALCIFICATION COMPRISING DIPEPTIDYL PEPTIDASE-4 INHIBITOR” (THE ASAN FOUNDATION, priority 2013, published 2015)

Experiments:
CD26/DPP-4 mRNA = CD26/DPP-4 mRNA expression by RT-PCR in vascular smooth muscle cells; format: cell-based, mice; settings: extent in proportion to the concentration of DETA-NO, FIG. 4
[1] = system: calcification of the cardioaorta; test: In vivo calcium deposition in the cardioaorta by Osteosense fluorescence; settings: control and eNOS KO transgenic mice, FIG. 11
Procedure: To determine whether the calcification of the cardioaorta decreased by the CD26 inhibitor, a CD26 inhibitor drug, DPPIV inhibitor sitagliptin, was administered to the control and the eNOS KO transgenic mice. Thereafter, the intensity of fluorescence was monitored by injecting Osteosense into the mice to check the in vivo calcium deposition. In FIG. 11, the red intensity of fluorescence represents a level of calcification.

[2] = system: vascular smooth muscle cells from the eNOS KO mice; test: Osteogenic differentiation of vascular smooth muscle cells (ALP, AR, VK staining); format: cell-based; settings: FIG. 10B
Procedure: The aorta extracted with the heart was washed with a serum-free M199 medium (Cellgro), and cut into small pieces. Thereafter, 20% fetal calf serum, and 3 mg/mL collagenase (Sigma) were added to the M199 medium, and […] for 3 hours in a 37° C. water bath. Then, it was confirmed that the separated cells were vascular smooth muscle cells using an α-SM actin monoclonal antibody (Sigma). The separated vascular smooth muscle cells were divided at a 30% concentration, and the medium used was replaced with osteogenic medium (Osteogenic Basal Medium, Osteogenic SingleQuots, Lonza, USA) after 24 hours. The medium was replaced every 3 days, and the cell culture was performed for 28 days. The concentration of sCD26/DPP-4 was measured upon medium replacement.
For the wild-type mice and eNOS KO mice, it was determined whether the promotion of ossification of vascular smooth muscle cells was induced by CD26 using an ALP staining method as a staining method used at the initial calcification stage, an AR staining method as a staining method used at the middle calcification stage, and a VK staining method as a staining method used at the late calcification stage.
Also, the vascular smooth muscle cells from the eNOS KO mice were treated with CD26 and a CD26 inhibitor, diprotin A, respectively.

Compound: NCCN(CCN)/[N+]([O-])=N/O [DETA-NO]
- expression of the CD26/DPP-4 mRNA (CD26/DPP-4 mRNA): decreased

Compound: N[C@@H](CC(=O)N1CCn2c(nnc2C(F)(F)F)C1)Cc1cc(F)c(F)cc1F [sitagliptin]
- calcification in the cardioaorta [1]: slowly proceeded

Compound: diprotin A
- osteogenic differentiation [2]: inhibited
